Source: PubChem BioAssay AID844 (SRMLSC, 2007)
The source made the active and inactive calls. How the calls were made is not given here.

Test system: MRP1 cells, doxorubicin viability shift, 10 uM compound
Assay: viability protection against doxorubicin, MRP-1 line – cell-based, doxorubicin EC50 shift, dose response (AID 844)
Details: for EC50: measured here: doxorubicin EC50 with compound

SMILES: COc1ccc(OC)c(-c2cc(C(=O)Nc3c(C)nn(Cc4ccccc4Cl)c3C)no2)c1
- fold increase in Dox EC50: 0.55 (inactive)
- EC50: 2.99 µM

SMILES: Cc1ccc(C2CC(C(F)(F)F)n3nc(C(=O)NCc4c(C)nn(C)c4C)c(Cl)c3N2)cc1 (stereo not drawn)
- fold increase in Dox EC50: 1.13 (inactive)
- EC50: 6.1 µM

SMILES: Cc1noc(/C=C/N(C)C)c1S(=O)(=O)N1CCCC(C(=O)NCc2ccc(F)cc2)C1 (stereo not drawn)
- fold increase in Dox EC50: 1.15 (inactive)
- EC50: 6.2 µM

SMILES: Cc1nc2cc(-c3ccc(Cl)cc3)nn2c(C)c1CCC(=O)NC(C)c1ccc2c(c1)OCCO2 (stereo not drawn)
- fold increase in Dox EC50: 0.52 (inactive)
- EC50: 2.83 µM

SMILES: Cc1cccc2cc(CN(Cc3ccco3)S(=O)(=O)c3ccc4c(c3)OCCO4)c(=O)[nH]c12
- fold increase in Dox EC50: 0.96 (inactive)
- EC50: 5.19 µM

SMILES: COc1ccc(C(=O)NCc2ccccc2)cc1S(=O)(=O)N1CCCc2ccccc21
- fold increase in Dox EC50: 0.56 (inactive)
- EC50: 3.02 µM

SMILES: O=C(CSc1nc2ccccc2o1)NCc1ccc2c(c1)OCO2
- fold increase in Dox EC50: 1.15 (inactive)
- EC50: 6.23 µM

SMILES: CNc1sc(C(=O)c2cccs2)c(N)c1-c1nc2ccccc2s1
- fold increase in Dox EC50: 0.56 (inactive)
- EC50: 3.03 µM

SMILES: Cc1ccc2c(C)nc(/N=C(\N)NC(=O)N3c4ccccc4Sc4ccccc43)nc2c1
- fold increase in Dox EC50: 1.38 (inactive)
- EC50: 7.48 µM

SMILES: Cc1ccc(-n2c(C)nnc2SCC(=O)Nc2ccccc2)cc1
- fold increase in Dox EC50: 1 (inactive)
- EC50: 5.41 µM

SMILES: COc1ccccc1NC(=O)c1sc2nc(-c3ccco3)ccc2c1N
- fold increase in Dox EC50: 0.85 (inactive)
- EC50: 4.61 µM

SMILES: N=C(N)SCc1ccccc1Cl
- fold increase in Dox EC50: 0.42 (inactive)
- EC50: 2.25 µM

SMILES: c1ccc(N2CCN(c3nc(-c4cccs4)nc4ccccc34)CC2)cc1
- fold increase in Dox EC50: 0.81 (inactive)
- EC50: 4.37 µM

SMILES: COC(=O)CC1SC(=O)NC1=O (stereo not drawn)
- fold increase in Dox EC50: 0.9 (inactive)
- EC50: 4.84 µM

SMILES: CC(CCc1ccccc1)NC(=O)CN1CCN(Cc2ccc(Cl)cc2)C1=O (stereo not drawn)
- fold increase in Dox EC50: 1.03 (inactive)
- EC50: 5.58 µM

SMILES: Cc1ccc(S(=O)(=O)Nc2nc3ccccc3nc2NCc2ccc3c(c2)OCO3)cc1C
- fold increase in Dox EC50: 1.02 (inactive)
- EC50: 5.49 µM

SMILES: Cc1onc(-c2ccccc2)c1C(=O)Nc1nnc(N(C)Cc2ccccc2)s1
- fold increase in Dox EC50: 0.64 (inactive)
- EC50: 3.46 µM

SMILES: CCC(=O)N1CCN=C1SCc1ccc(F)cc1
- fold increase in Dox EC50: 0.75 (inactive)
- EC50: 4.07 µM

SMILES: Cc1ccc(-c2noc(C3CCCN(S(=O)(=O)c4ccc5ccccc5c4)C3)n2)o1 (stereo not drawn)
- fold increase in Dox EC50: 1.58
- EC50: 8.55 µM

SMILES: O=C(N/N=C/c1ccc(-c2ccc([N+](=O)[O-])cc2)o1)C(O)c1ccccc1 (stereo not drawn)
- fold increase in Dox EC50: 0.74 (inactive)
- EC50: 3.97 µM

SMILES: CC(/C=N\NC(=O)CN1CCN(S(=O)(=O)c2ccc(C)cc2)CC1)=C\c1ccccc1
- fold increase in Dox EC50: 1.26 (inactive)
- EC50: 6.79 µM

SMILES: O=c1[nH]c(C2CCCN(S(=O)(=O)c3ccccc3)C2)nc2c1nnn2Cc1ccccc1 (stereo not drawn)
- fold increase in Dox EC50: 0.11 (inactive)
- EC50: 0.603 µM

SMILES: CC(O)(CS(=O)(=O)Cc1ccccc1)C(=O)Nc1ccc(C(F)(F)F)cc1 (stereo not drawn)
- fold increase in Dox EC50: 1.27 (inactive)
- EC50: 6.84 µM

SMILES: Cc1oc(C(=O)Nc2ccc(C(=O)O)cc2)cc1COc1ccccc1
- fold increase in Dox EC50: 0.42 (inactive)
- EC50: 2.24 µM

SMILES: O=C(COc1ccc2oc3c(c2c1)CCCC3)Nc1ccccn1
- fold increase in Dox EC50: 1.27 (inactive)
- EC50: 6.85 µM

SMILES: CCOC(=O)Cc1csc(NC(=O)c2c(-c3ccccc3)noc2C)n1
- fold increase in Dox EC50: 0.44 (inactive)
- EC50: 2.4 µM

SMILES: Cc1ccc(C)c2sc(NC(=O)c3ccc(N4CCCCC4)c([N+](=O)[O-])c3)nc12
- fold increase in Dox EC50: 1.05 (inactive)
- EC50: 5.66 µM

SMILES: COc1ccc(N2C(=O)CC(N3CCC(O)(c4cccc(C(F)(F)F)c4)CC3)C2=O)cc1 (stereo not drawn)
- fold increase in Dox EC50: 0.89 (inactive)
- EC50: 4.82 µM

SMILES: C=CCn1c(CNc2ccccc2)nnc1SCC(=O)N/N=C/c1ccccc1O
- fold increase in Dox EC50: 0.58 (inactive)
- EC50: 3.11 µM

SMILES: Cc1ccc(N2C(=O)NC(=O)/C(=C\c3ccsc3)C2=O)cc1C
- fold increase in Dox EC50: 0.8 (inactive)
- EC50: 4.33 µM

SMILES: Cc1c(NC(=O)CSc2ccc(Cl)cc2)cccc1-c1nc2ncccc2o1
- fold increase in Dox EC50: 0.99 (inactive)
- EC50: 5.34 µM

SMILES: Cc1cccc(OCCNC(=O)c2ccc(Oc3ccc(C(F)(F)F)cc3[N+](=O)[O-])cc2)c1
- fold increase in Dox EC50: 1.12 (inactive)
- EC50: 6.05 µM

SMILES: O=C(NC(=S)NC(=O)c1ccccc1F)c1ccccc1F
- fold increase in Dox EC50: 1.44 (inactive)
- EC50: 7.79 µM

SMILES: C=CCOc1ccc(CNc2ccc(NC(=O)CC(C)C)cc2)cc1OC
- fold increase in Dox EC50: 0.82 (inactive)
- EC50: 4.43 µM

SMILES: Cc1cccc(N2CCN(C(=O)Cc3ccc(Br)cc3)CC2)c1C
- fold increase in Dox EC50: 0.95 (inactive)
- EC50: 5.11 µM

SMILES: CCC1(C)Cc2c(sc3nnn(CC(=O)Nc4ccc(Cl)cc4)c(=O)c23)CO1 (stereo not drawn)
- fold increase in Dox EC50: 0.2 (inactive)
- EC50: 1.09 µM

SMILES: Cc1onc(-c2c(F)cccc2Cl)c1C(=O)Nc1sc2c(c1C#N)CCC(C(C)(C)C)C2 (stereo not drawn)
- fold increase in Dox EC50: 0.48 (inactive)
- EC50: 2.61 µM

SMILES: O=C(CC1SC(=O)N(Cc2ccccc2)C1=O)Nc1nccs1 (stereo not drawn)
- fold increase in Dox EC50: 1.82
- EC50: 9.84 µM

SMILES: Clc1ccc(Cc2nnc(-c3ccccc3Br)o2)cc1
- fold increase in Dox EC50: 1.14 (inactive)
- EC50: 6.15 µM

SMILES: O=C(CN1C(=O)/C(=C/c2ccccc2)SC1=S)Nc1ncc(Cc2ccccc2)s1
- fold increase in Dox EC50: 1.49 (inactive)
- EC50: 8.03 µM

SMILES: O=C1CC(N2CCCN(C3CC(=O)N(c4ccc(F)cc4)C3=O)CC2)C(=O)N1c1ccc(F)cc1 (stereo not drawn)
- fold increase in Dox EC50: 1.17 (inactive)
- EC50: 6.34 µM

SMILES: O=C1CC(N2CCC(c3nc4ccccc4o3)CC2)C(=O)N1c1cc(Cl)cc(Cl)c1 (stereo not drawn)
- fold increase in Dox EC50: 1.36 (inactive)
- EC50: 7.36 µM

SMILES: CCN(CC)C(=O)C(=O)c1c(-c2ccccc2)[nH]c2ccccc12
- fold increase in Dox EC50: 2.22
- EC50: 12 µM

SMILES: O=C(Nc1nc(-c2ccc(Oc3ccccc3)cc2)cs1)C1=COCCO1
- fold increase in Dox EC50: 0.84 (inactive)
- EC50: 4.54 µM

SMILES: CCN(CC)S(=O)(=O)c1cccc(NC(=O)CCSc2ccc(Cl)cc2)c1
- fold increase in Dox EC50: 0.89 (inactive)
- EC50: 4.81 µM

SMILES: CCOP(=O)(OCC)C(NC(=O)Nc1ccc(Cl)cc1)C(=O)N(CC)CC (stereo not drawn)
- fold increase in Dox EC50: 1.33 (inactive)
- EC50: 7.16 µM

SMILES: CCOC(=O)N1CCN(C(=O)CSc2nnc(COc3ccc(Cl)cc3)o2)CC1
- fold increase in Dox EC50: 1.03 (inactive)
- EC50: 5.55 µM

SMILES: CCOC(=O)C1=C(C)Nc2sc(C(=O)c3ccc(C)cc3)c(N)c2C1c1ccc(C(=O)OC)cc1 (stereo not drawn)
- fold increase in Dox EC50: 0.36 (inactive)
- EC50: 1.96 µM

SMILES: Cc1nc(=O)c(-c2ccccc2)c(C)n1-c1ccc(C(=O)O)cc1
- fold increase in Dox EC50: 1.3 (inactive)
- EC50: 7.02 µM

SMILES: CCn1c(SCc2ccc(Cl)cc2)nc2nc3c(cc2c1=O)CCCC3
- fold increase in Dox EC50: 0.77 (inactive)
- EC50: 4.17 µM

SMILES: N/C(=N\N=C\c1ccc2c(c1)OCO2)c1nonc1N
- fold increase in Dox EC50: 0.88 (inactive)
- EC50: 4.73 µM

SMILES: Cc1ccc(C(=O)COc2ccccc2-c2ccccc2)cc1C
- fold increase in Dox EC50: 0.9 (inactive)
- EC50: 4.85 µM

SMILES: COc1ccc(Cn2c(O)c(C=Nc3ccc(OC)cc3)c3ccccc3c2=O)cc1
- fold increase in Dox EC50: 1.34 (inactive)
- EC50: 7.24 µM

SMILES: CC(C)(C)c1ccc(-c2nc(-c3ccncc3)no2)cc1
- fold increase in Dox EC50: 0.77 (inactive)
- EC50: 4.15 µM

SMILES: COc1ccc(C2=NN(C(=O)c3cccs3)C(c3ccc(OC)cc3)C2)cc1 (stereo not drawn)
- fold increase in Dox EC50: 1.06 (inactive)
- EC50: 5.7 µM

SMILES: CCCC1S/C(=N/N=C/c2ccc(OC)cc2)N(Cc2ccccc2)C1=O (stereo not drawn)
- fold increase in Dox EC50: 1 (inactive)
- EC50: 5.39 µM

SMILES: C=C(Cl)COc1ccc2c(CCCC)cc(=O)oc2c1
- fold increase in Dox EC50: 0.81 (inactive)
- EC50: 4.35 µM

SMILES: O=C(CCc1ccccc1)Nc1nnc(-c2ccc3c(c2)CCCC3)o1
- fold increase in Dox EC50: 0.25 (inactive)
- EC50: 1.36 µM

SMILES: COc1ccc(-c2cc3nc(-c4ccccc4)cc(N4CCC5(CC4)OCCO5)n3n2)cc1
- fold increase in Dox EC50: 0.21 (inactive)
- EC50: 1.16 µM

SMILES: CCOC(=O)c1ccc(NC(=O)C2CCN(C(=O)c3ccc(OC)c(OC)c3)CC2)cc1
- fold increase in Dox EC50: 0.99 (inactive)
- EC50: 5.35 µM

SMILES: CC(=O)NN1C(=O)/C(=C\c2ccc(C)cc2)SC1=S
- fold increase in Dox EC50: 1.47 (inactive)
- EC50: 7.96 µM

SMILES: N=C(N)SCc1ccccn1
- fold increase in Dox EC50: 0.54 (inactive)
- EC50: 2.9 µM

SMILES: O=C1C(Cc2cccc([N+](=O)[O-])c2)SC(=Nc2ccccc2)N1c1ccccc1 (stereo not drawn)
- fold increase in Dox EC50: 0.73 (inactive)
- EC50: 3.94 µM

SMILES: Cc1c(C(=O)OC2CCC(C)CC2)[nH]c2c1C(=O)CCC2 (stereo not drawn)
- fold increase in Dox EC50: 0.93 (inactive)
- EC50: 5.01 µM

SMILES: CC(=O)c1ccc(NC(=O)CN2C(=O)/C(=C/C(C)=C/c3ccccc3)SC2=S)cc1
- fold increase in Dox EC50: 0.62 (inactive)
- EC50: 3.36 µM

SMILES: Cc1ccc(C(=O)CSc2n[nH]c(-c3ccco3)n2)cc1C
- fold increase in Dox EC50: 0.74 (inactive)
- EC50: 3.97 µM

SMILES: COc1ccc(Nc2nnc(Cc3ccc(Cl)cc3)c(=O)[nH]2)c(OC)c1
- fold increase in Dox EC50: 0.91 (inactive)
- EC50: 4.93 µM

SMILES: CC(CCc1ccccc1)NC(=O)C1CCN(C(=O)c2sccc2-n2cccc2)CC1 (stereo not drawn)
- fold increase in Dox EC50: 0.28 (inactive)
- EC50: 1.51 µM

SMILES: CC(C)(C)c1ccc(C(=O)CSc2ncn[nH]2)cc1
- fold increase in Dox EC50: 0.82 (inactive)
- EC50: 4.41 µM

SMILES: COc1ccc(NC(=O)c2c(F)cccc2F)cc1S(=O)(=O)Nc1ccc(Br)cc1
- fold increase in Dox EC50: 0.71 (inactive)
- EC50: 3.86 µM

SMILES: CCCN1C(=O)/C(=N\OCC(=O)Nc2ccc(C(C)C)cc2)c2ccccc21
- fold increase in Dox EC50: 0.74 (inactive)
- EC50: 3.99 µM

SMILES: COc1ccc(NC(=O)c2oc3ccccc3c2NC(=O)C(C)(C)C)cc1
- fold increase in Dox EC50: 0.63 (inactive)
- EC50: 3.41 µM

SMILES: c1ccc(OCCSc2nc3ccccc3[nH]2)cc1
- fold increase in Dox EC50: 1.03 (inactive)
- EC50: 5.54 µM

SMILES: Cc1nc(C)c(C(=O)NNS(=O)(=O)c2ccccc2)s1
- fold increase in Dox EC50: 0.83 (inactive)
- EC50: 4.48 µM
